Patent US11944601B2, “Applications of ellagic acid in preparation of immunomodulatory medicines for treatment of neuromyelitis optica or immune rejection after skin transplantation” (priority 2022, dated 2024)

Tests used:
[1] = system: NMO-IgG induced cerebral lesion in mice; test: NMO-IgG induced cerebral lesion in mice, AQP4 and MBP staining of brain slices; format: in vivo; conditions: 2 mg/kg/d from three days before surgery; fifth day of modeling
Source text: Female C57BL/6 mice aged 6-8 weeks were purchased from Air Force Military Medical University (Xi'an, China). Mice were fed under standard light and temperature conditions. All experimental procedures and protocols were approved by the institutional animal ethics Committee of Shaanxi Normal University and carried out in accordance with the approved institutional guidelines and regulations.
WO mice were randomly divided into control group and EA group. In order to induce WO, mice were first anesthetized with 10% (w/v) of chloral hydrate and installed on a brain stereotactic apparatus (RWD Life Science), then the mouse scalp was cut along the midline, a small hole with a diameter of 1 mm was drilled on the skull 2 mm on the right side of the anterior fontanelle, and finally 5 μL microinjector (Hamilton) was inserted 3 mm deep and 2 μL of NMO-IgG and 3 μL of complement were injected at a rate of 1 μL/min. EA (2 mg/kg/d) and control solvents were administered to WO mice three days before surgery.
The mice were sacrificed on the fifth day of modeling. The brain tissue was removed from the mice and fixed in 4% (w/v) of paraformaldehyde. The frozen sections were stained with AQP4 and MBP.

Treg cells = test: Treg polarization in vitro, flow cytometry; format: cell-based, mice; conditions: 0.5-2 μM, 3 days
Protocol: (§1) Single-cell suspension of spleen isolated from normal female C57BL/6 mice (aged 8-10 weeks) was co-cultured with anti-CD3 (0.5 μg/mL), anti-CD28 (1 μg/mL), TGF-β (2 ng/mL), IL-6 (20 ng/mL), IL-1 β (10 ng/mL), anti-IL-4 (10 μg/mL) and anti-IFN-γ (10 μg/mL) for 3 days to induce differentiation into Th17 cells. Cells were cultured with anti-CD3 (0.5 μg/mL), anti-CD28 (1 μg/mL), TGF-β (2 ng/mL) and IL-2 (10 ng/ml) for 3 days to induce differentiation into Treg cells. Cytokines were detected by flow cytometry.

colitis mice = test: DSS-induced acute colitis in mice; format: in vivo; conditions: 100 mg/kg/d, 2.5% DSS 7 days
Protocol: The mice were randomly divided into control group and EA treatment group. 2.5% (w/v) of dextran sodium sulfate (DSS) was added to drinking water continuously for 7 days to induce acute colitis, and mice in the treatment group were fed 100 mg/kg/d EA. During the experiment, mice were weighed regularly every day and the percentage change was calculated. In addition, the feces characteristics of mice were observed every day and divided into three grades according to the methods of Berberat et al. 1: normal, 2: increased stool viscosity and easily dispersed, 3: watery diarrhea. Moreover, hidden blood of mouse feces was measured by pyramidon method. If the mouse feces contained reddish-brown or bright red blood visible to the naked eye, it was determined as fecal blood. Finally, the disease activity index (DAI) of mice was calculated according to the scoring criteria of Berberat et al. The whole segment of colon from anus to the end of cecum of mice was taken, the length was measured and photographed for recording.

IFN-γ and IL-17 = test: Skin transplantation model, ELISA of splenocyte culture supernatant; format: in vivo, mice
Protocol: (§2) The donor BALB/c mice were sacrificed, the dorsal hair was removed with a shaver. Appropriately sized skin grafts were cut, peeled off, washed, immersed in sterilized saline containing antibiotics for 5 minutes, and finally stored on ice for backup. The receptor C57BL/6 mice were intraperitoneally injected with 0.5% of pentobarbital sodium injection according to the body weight of 0.15 mL/20 g. After the mice were anesthetized, they were fixed on a surgical plate, the mid-dorsal parts of the mice body slightly to the lefts were selected as operation areas. Mice were shaved and disinfected with 75% alcohol to prepare graft beds. The prepared donor skin sheet was placed on the predetermined transplantation bed of recipient mice and then flattened. The skin patch was sutured to the transplant bed by discontinuous suture with 6-0 sutures. The recipient mice were administered therapeutic medicines from the day of surgery. […] The spleens of the receptor mice were taken on the 7th day to isolate single cells for flow cytometer detection. The supernatant of splenocytes was collected for enzyme-linked immunosorbent assay (ELISA).

EAE mice [2] = test: EAE mice, clinical scores; format: in vivo; conditions: for EAE clinical score / course of disease: administered from day 0 of immunization (prevention stage); for EAE clinical score / course of disease / EAE clinical score / development of EAE: EA intraperitoneally, URA 25 mg/kg
[3] = system: Th1, Th17 and Treg cells in the peripheral immune system; test: Skin transplantation model, spleen cells of receptor mice by flow cytometry; format: in vivo; conditions: day 7, cultured 72 hours
Protocol: as §2

[4] = system: skin transplantation model; test: Skin transplantation model, H&E staining of skin grafts; format: in vivo; conditions: BALB/c skin on C57BL/6 mice
EAE mice [5] = test: EAE mice, spinal cord pathological sections (H&E, LFB, MBP staining); format: in vivo; conditions: for demyelination of white matter of spinal cord (LFB) / infiltration of spinal cord inflammatory cells (H&E): day 20 p.i., EA lumbosacral, URA cervical enlargement of spinal cord
Th17 cells = test: Th17 polarization of spleen cells in vitro, flow cytometry; format: cell-based, mice; conditions: for polarization of Th17 cells: 3 days; for polarization of Th17 cells / Th1 cells (IFN-γ): flow cytometry; for inhibitory effect on Th17 / IL17 at 5 μM compared with the lower concentration: 5 μM vs 2.5 μM (EA) or 1 μM (URA)
Protocol: as §1

EAE mice [6] = test: EAE mice, CNS-infiltrating mononuclear cells by flow cytometry; format: in vivo
Protocol: EAE mice were randomly divided into EA groups and URA groups. EA groups were divided into blank control group, fingolimod (FTY-720) positive control group (0.1 mg/kg) and EA administration group (0.1 mg/kg). URA groups were divided into blank control group and URA administration group (25 mg/kg). To induce EAE, mice were immunized at two sites on the back with 200 μg of myelin oligodendrocyte glycoprotein peptide 35-55 (MOG35-55) (Genescript) in 200 μL of emulsion containing 50% complete Freund's adjuvant with 5 mg/ml Mycobacterium tuberculosis H37Ra (Difco). All mice were i.p. injected with 200 ng pertussis toxin (Sigma-Aldrich) in PBS on days 0 and 2 postimmunization (p.i.). Ellagic acid (EA) and its metabolic derivative URA were purchased from Ark Pharm, Inc and respectively administered to EAE mice on the day of immunization, the 11th day p.i and the 17th day p.i.
Mice were sacrificed at day 20 p.i. Approximately 0.5 cm of the lumbosacral enlarged spinal cord was removed from the sacrificed mouse and fixed in 4% (w/v) paraformaldehyde. […]
For flow cytometry surface marker staining, the cells were incubated with surface-stained fluorescent microsphere-coupled antibodies or isotype control antibodies on ice for 30 min. […] Data were further detected by flow cytometry and analyzed by Flowjo software (Treestar, Ashland, OR).

[7] = system: IL-17 family-related genes; test: RT-qPCR of Th17-related genes in naïve CD4+ T cells under Th17 polarizing conditions; format: cell-based, mice; conditions: 4 h, vs PBS
Protocol: Total RNA was extracted by using RNAprep Pure Cell/Tissue Kit (TIANGEN) and then reverse transcribed with Hiscript QRT Supermix (Vazyme) according to the manufacturer's instructions. mRNA expression was determined by real-time quantitative PCR using 2×ChamQ™ SYBR® qPCR Master Mix (Vazyme). Data was quantitatively analyzed on Roche Molecular Biochemicals Light Cycler Software Version 3.5. Mouse GAPDH gene was used as endogenous control for sample normalization.

[8] = administered from onset stage (day 11 p.i.)
[9] = administered from peak period (day 17 p.i.)

Q: What does the source list for O=c1oc2c(O)c(O)cc3c(=O)oc4c(O)c(O)cc1c4c23 [EA, ellagic acid]?
A: AQP4 protein loss rate [1]: lower than that in control group; degree of demyelination (MBP) [1]: decreased; polarization of naïve CD4+T towards Treg (Treg cells): promote the polarization of naïve CD4+T towards Treg in a dose-dependent manner; colon length (colitis mice): significantly restored; DAI score (colitis mice; vs DSS control group): decreased significantly; percentage of weight loss (colitis mice; vs DSS control group): significantly lower; content of IFN-γ in supernatant of splenocytes (IFN-γ and IL-17): significantly reduced; content of IL-17 in supernatant of splenocytes (IFN-γ and IL-17): significantly reduced; effect on IFN-γ and IL-17 content compared with CsA (IFN-γ and IL-17): better than that of CsA; therapeutic effect in EAE compared with fingolimod (FTY-720) (EAE mice [2]; EA 0.1 mg/kg vs FTY-720 0.1 mg/kg): equivalent; EAE clinical score / course of disease (EAE mice [2]): inhibited the course of disease; EAE clinical score / development of EAE (EAE mice [2]; [8]): significantly inhibited; EAE clinical score / development of EAE (EAE mice [2]; [9]): significantly inhibited; progress of EAE disease (EAE mice [2]; oral administration from day 0 of immunization, dosage 250 times that of injection): effectively alleviate the progress of the disease; Th1 inflammatory cells [3]: significantly inhibited; Th17 inflammatory cells [3]: significantly inhibited; proportion of anti-inflammatory cell Treg [3]: increased; infiltration of inflammatory cells in the grafted skin [4]: significantly inhibited; demyelination of white matter of spinal cord (LFB) (EAE mice [5]): significantly attenuated; infiltration of spinal cord inflammatory cells (H&E) (EAE mice [5]): significantly attenuated; polarization of Th17 cells (Th17 cells; 2.5 μM): significantly inhibited; inhibitory effect on Th17 / IL17 at 5 μM compared with the lower concentration (Th17 cells): better; polarization of Th17 cells (Th17 cells; 5 μM): significantly inhibited; absolute number of CD45+, CD45+CD4+, CD4+IL-17+, CD4+IFN-γ+ and CD4+GM-CSF+ cells infiltrating into the CNS (EAE mice [6]): significantly reduced; absolute number of pro-inflammatory microglia and macrophages infiltrating into CNS (CD45high+CD11b+, CD45low+CD11b+, CD11b+MHC II+, CD11b+TNF-α+, CD11b+Nos2+) (EAE mice [6]): decreased

Q: With O=c1oc2cc(O)ccc2c2ccc(O)cc12 [URA, urolithin A] as the molecule, how does the “EAE clinical score / course of disease” value (EAE mice [2]) read?
A: Its value is “reduced the clinical scores”.

Q: What about the “EAE clinical score / development of EAE” value (EAE mice [2]; [8]) of the same molecule?
A: Its value is “reduced the clinical scores”.

Q: What about the “EAE clinical score / development of EAE” value (EAE mice [2]; [9]) of the same molecule?
A: The value was “reduced the clinical scores”.

Q: What about the “expression level of IL-17 family-related genes” value [7] of the same molecule?
A: Its value is “decreased”.

Q: And the “expression of Foxp3” value [7]?
A: Its value is “promoted the expression of Foxp3 to a certain extent”.

Q: What about the “proportion of intact myelin sheath in the spinal cord (MBP)” value (EAE mice [5]; compared with control mice) of the same molecule?
A: Its value is “significantly increased”.

Q: And the “demyelination of white matter of spinal cord (LFB)” value (EAE mice [5])?
A: Its value is “significantly relieved”.

Q: What about the “infiltration of spinal cord inflammatory cells (H&E)” value (EAE mice [5]) of the same molecule?
A: Its value is “significantly relieved”.

Q: What about the “dose dependence of inhibition on IFN-γ” value (Th17 cells; 1 μM and 5 μM) of the same molecule?
A: Its value is “no dose-dependent inhibition”.

Q: What about the “polarization of Th17 cells” value (Th17 cells; 1 μM) of the same molecule?
A: Its value is “significantly inhibited”.

Q: What about the “Th1 cells (IFN-γ)” value (Th17 cells; 1 μM) of the same molecule?
A: The value was “significantly inhibited”.

Q: What about the “inhibitory effect on Th17 / IL17 at 5 μM compared with the lower concentration” value (Th17 cells) of the same molecule?
A: The value was “more significantly”.

Q: And the “polarization of Th17 cells” value (Th17 cells; 5 μM)?
A: Its value is “significantly inhibited”.

Q: What about the “Th1 cells (IFN-γ)” value (Th17 cells; 5 μM) of the same molecule?
A: The value was “significantly inhibited”.
